From patent publication US11072627B2, “Uridine diphosphate derivatives, compositions and methods for treating neurodegenerative disorders” (Tufts University, priority 2011, dated 2021)
“Also recorded” adds a separate entry of the source. Where two headings read alike, the source gives them in different places. Values belong to the compound of their own block, whether it stands above or below them.

Legend:
P2Y6 receptor [1] = biological target: T1, P2Y6 receptor (Homo sapiens, UniProt Q15077); assay: Activation of P2Y6 receptor, receptor induced Ca2+ changes with fluo-4; format: cell-based; parameters: expressed in transfected cells; host or cells: 1321N1 human astrocytoma cells
T1 sequence (Q15077 whole entry): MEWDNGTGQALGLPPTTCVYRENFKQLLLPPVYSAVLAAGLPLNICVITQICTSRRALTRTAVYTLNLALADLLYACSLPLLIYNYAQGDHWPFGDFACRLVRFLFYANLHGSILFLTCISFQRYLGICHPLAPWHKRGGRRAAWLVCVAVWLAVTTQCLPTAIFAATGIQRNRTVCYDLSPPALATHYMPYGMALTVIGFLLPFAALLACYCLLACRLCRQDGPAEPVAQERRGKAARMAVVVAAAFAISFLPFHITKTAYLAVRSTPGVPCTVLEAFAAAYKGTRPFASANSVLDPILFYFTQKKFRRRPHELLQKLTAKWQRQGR
Procedure: (§1) Synthetic ligands were tested for activation of P2Y6 receptor by measuring receptor induced Ca^2+ changes with the fluorescent Ca^2+ indicator fluo-4. 1321N1 human astrocytoma cell lines either expressing P2Y2, P2Y4 or P2Y6 receptors were plated into 24-well plates. Two days after plating, fluorometric measurements were made and responses of cells to a serial dilution of ligands were determined. P2Y6 mediated Ca^2+ fluorescent change was determined by normalized accumulation of fluorescent change of 3 timepoints after ligand administration subtracted by value from ACSF control. Changes in fluorescent intensity were plotted corresponding to ligand concention in GraphPad. Dose-response curve and EC50 for each ligand was estimated using nonlinear curve fit and Sigmoidal dose-response analysis. […] The ability of the sodium salt of compound 5 to elevate Ca^2+ signals in P2Y6 expressing cells was attenuated by addition of the P2Y6 antagonist MRS2578.
as §1, with “fluo-4, and results are shown in FIG. 10(A)-(K).” for “fluo-4.”

P2Y6 receptor [2] = biological target: T1, P2Y6 receptor; details: cited from earlier work
PSAPP mice [3] = assay: Tolerability of increased dose of PSB0474; format: in vivo, mouse; details: 1000× increase in dose
PSAPP mice [4] = assay: Contextual fear conditioning test; format: in vivo, mouse
Description: (§2) Heterozygous mutant (K670N/M671L) APP (50% C57B6, 50% SJL) transgenic mice were crossed with heterozygous mutant (A246E) PS-1 (50% C57B6, 50% SJL) transgenic mice to generate heterozygous PSAPP transgenic mice (also referred to as PS-1/APP or PSAPP+/+ mice), which refers to animals heterozygous for the PS-1 A246E transgene and the APP K670N/M671L transgene. Non-transgenic control animals were littermates (also referred to as PSAPP_−/− mice) generated in the breeding for PSAPP transgenic animals. Mouse genotype was determined by Polymerase Chain Reaction (PCR). Both male and female mice of 6-7 months old were used for the experiments below. All animal experiments were performed in accordance with the Tufts Animal Care and Use Committee and with national regulations and policies.
On day one, animals were trained in a fear conditioning apparatus for a total of 7 minutes with a two-pairing paradigm of cue and mild foot shock (a 30-s acoustic-conditioned stimulus, 80 dB; a 2-s shock stimulus, 0.5 mA). To evaluate contextual fear learning, the animals were returned to the training context 24 hours post-training, and freezing behavior was scored for 5 minutes. Freezing behavior was monitored by MotorMonitor (Hamilton Kinder) and scored every 5 seconds.
In this study, the fear conditioning associative learning paradigm was used as a rapid cognition assay for PSAPP mice. This study allowed us to probe cognitive function with a single training day followed in 24 hours by tests for contextual and cued fear learning. Contextual fear learning is dependent upon a brain area that has been implicated as a locus for cognitive decline in AD: the hippocampus. Two pairings of CS-US for fear conditioning were followed 24 hours later by testing for contextual and cued fear learning. Previous studies have reported that PSAPP animals appear to have a selective hippocampus-dependent impairment in associative learning following two pairings of conditioned stimuli for fear conditioning.
This represents a decrease in the cognitive impairment observed in the untreated mice.

PSAPP mice [5] = assay: Postmortem immunohistochemistry of plaque load in cortex and hippocampus; format: in vivo, mouse; details: for immunoreactivity of β1-40 (plaque load): i.p. for 4 and 6 consecutive days
Description: as §2
Mice were perfused transcardially with 4% paraformaldehyde and 40 μm Coronal sections were collected. Sections were sequentially incubated in 0.3% H2O2 for 10 minutes, blocking solution for 2 hrs, blocking solution containing the primary antibody (rabbit anti-beta1-42; rabbit anti-beta1-40, from Chemicon International and rat anti-CD45) for 48 hours at 4° C., and blocking solution containing biotinylated antibody or fluorescently-labeled antibody for 2 hours at room temperature. Sections were visualized in a bright field microscope or a confocal microscope, and the optical density was obtained using MetaMorph software.
After repeated imaging, brains were fixed and subjected to postmortem immunohistochemistry with amyloid beta specific antibodies β1-40 and β1-42 to evaluate the plaque load (area occupied by immunostaining of plaque) in cortex and hippocampus.
PSB0474 was systemically administered to PSAPP mice via intraperitoneal injection for 2, 4 and 6 consecutive days. In one group, prior to evaluation and following to administration for 6 consecutive days, treatment was suspended for two weeks (6+2 weeks group). Brains were then fixed and plaque load was evaluated by immunostaining with the amyloid beta specific antibodies: β1-40 and β1-42. Representative images of plaque load in cortex and hippocampus from animals that received injections of PSB0474 according to the foregoing injection schedules are shown in FIG. 5(A)-(D). […] Whereas, when administration of PSB0474 was stopped for 2 weeks following six consecutive days of treatment (denoted as the 6+2 weeks group), β1-40 staining rebounded; although to a level lower than observed in mice treated with saline as a vehicle control. […]
To generate these graphs showing plaque load, mice were euthanized, brain sections cut and antibodies directed against Aβ 42 were used to disclose Aβ plaques. […] The algorithm then calculated the percent area of the field of view occupied by the plaques.

PSAPP mice [6] = assay: Soluble Abeta level detected with ELISA; format: in vivo, mouse; details: UDP treatment
PSAPP mice [7] = assay: Postmortem immunohistochemistry of plaque load in cortex and hippocampus; format: in vivo, mouse; details: for decrease in plaque load: acute i.c.v. UDP
PSAPP mice [8] = assay: Hippocampal long-term potentiation (LTP) recording; format: in vivo, mouse
Procedure: Hippocampal slices ([…] thick) were prepared from 6-month-old PSAPP mice. Baseline responses were obtained every 10 seconds and Input-output (I/O) curves, paired-pulse modification and LTP were successively measured. The stimulation intensity was set to a level that gives a value of 30% of the maximum obtained. LTP were induced by high frequency stimulation (HFS, 100 pulses at 100 Hz, four times) or by theta-burst stimulation (TBS, 10 bursts at 5 Hz, repeated 10 times in 15 s intervals).
Accumulated evidence has shown that amyloid peptides naturally secreted or isolated from Alzheimer's brains impair synaptic plasticity, especially hippocampal long-term potentiation (Walsh et al., 2002). Therefore, we further performed LTP recordings in PASPP mice and investigated whether P2Y6 receptor-mediated plaque clearance affects synaptic plasticity. […] First, it was observed that LTP at the schaffer collateral synapse within the CA1 region was depressed in PSAPP mice, as compared with littermates (FIG. 8(A)).

PSAPP mice [9] = assay: Two-photon in vivo imaging of amyloid plaques in barrel cortex; parameters: species or system mouse
Description: as §2
In this study, PSAPP mice were anesthetized using isoflurane and a thin-skull preparation was used to minimize the surface damage. Amyloid plaques were visualized with methoxyX04 labeling and blood plasma was labeled with Rhodamine dextran to facilitate re-localization of the same imaging area. Stack images were obtained using a two-photon system (Prairie Technologies) with excitation at 850 nm. The emission was detected by external photomultiplier tubes (525/70; DLCP 575; 607/45 nm).
Animals were anesthetized and immobilized in a stereotaxic frame. For each injection, 1 μl of 10 mM UDP or other suitable compounds in artificial cerebrospinal fluid (ACSF) as the vehicle were injected intraventricularly using the following coordinates: AP 0.2 mm, ML 1 mm, and DV 2.2 mm.
To evaluate the effect of UDP on plaque burden, two-photon microscopy was used to assess the amyloid plaques in the barrel cortex in living PSAPP mice. Amyloid plaques were stained by systemically administered methoxy-X04. One day prior to imaging, PSAPP mice were injected with methoxyX04 to label the amyloid plaques. On the imaging day, to facilitate the re-location of the same imaging area, blood plasma was labeled with Rhodamine dextran. Images were obtained from the same start- and end-point to ensure the same image volume.
The results were shown in a maximum intensity projection of a fluorescent stack containing 45 planes. Immediately after imaging, animals were injected with ACSF or UDP intracerebroventricularly (i.c.v.) and allowed to recover. On day 4, animals were subjected to a second period of imaging of the same regions studied on day 1 and the results are shown in FIG. 1(D)-(F). The similar pattern of angiopathy (shown by open arrows) indicated the same imaging area.

P2Y2 receptor = biological target: T2, P2Y2 receptor (Homo sapiens, UniProt P41231); assay: Ca2+ mobilizing effect in 1321N1 cells expressing P2Y2 (fluo-4); format: cell-based; details: sodium salt; 1321N1 human astrocytoma cells expressing P2Y2
T2 construct: expressed in transfected cells; host or cells: 1321N1 human astrocytoma cells
T2 sequence (P41231 whole entry): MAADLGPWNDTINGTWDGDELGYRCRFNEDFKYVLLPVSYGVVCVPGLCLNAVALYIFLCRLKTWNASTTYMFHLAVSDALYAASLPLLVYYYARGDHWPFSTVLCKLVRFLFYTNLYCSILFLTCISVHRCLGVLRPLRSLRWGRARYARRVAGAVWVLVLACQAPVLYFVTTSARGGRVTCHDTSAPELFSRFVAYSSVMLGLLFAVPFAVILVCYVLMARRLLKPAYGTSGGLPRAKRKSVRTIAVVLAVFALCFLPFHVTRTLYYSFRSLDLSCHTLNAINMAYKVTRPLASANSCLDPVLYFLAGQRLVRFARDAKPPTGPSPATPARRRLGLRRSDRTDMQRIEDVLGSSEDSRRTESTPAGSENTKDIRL
Procedure: (§3) Synthetic ligands were tested for activation of P2Y6 receptor by measuring receptor induced Ca^2+ changes with the fluorescent Ca^2+ indicator fluo-4. 1321N1 human astrocytoma cell lines either expressing P2Y2, P2Y4 or P2Y6 receptors were plated into 24-well plates. Two days after plating, fluorometric measurements were made and responses of cells to a serial dilution of ligands were determined. P2Y6 mediated Ca^2+ fluorescent change was determined by normalized accumulation of fluorescent change of 3 timepoints after ligand administration subtracted by value from ACSF control. Changes in fluorescent intensity were plotted corresponding to ligand concention in GraphPad. Dose-response curve and EC50 for each ligand was estimated using nonlinear curve fit and Sigmoidal dose-response analysis. […]
(§4) Synthetic ligands were tested for activation of P2Y6 receptor by measuring receptor induced Ca^2+ changes with the fluorescent Ca^2+ indicator fluo-4, and results are shown in FIG. 10(A)-(K). […] Two days after plating, fluorometric measurements were made and responses of cells to a serial dilution of ligands were determined. P2Y6 mediated Ca^2+ fluorescent change was determined by normalized accumulation of fluorescent change of 3 timepoints after ligand administration subtracted by value from ACSF control. […]

P2Y4 receptor = biological target: T3, P2Y4 receptor (Homo sapiens, UniProt P51582); assay: Ca2+ mobilizing effect in 1321N1 cells expressing P2Y4 (fluo-4); format: cell-based; details: sodium salt; 1321N1 human astrocytoma cells expressing P2Y4
T3 construct: expressed in transfected cells; host or cells: 1321N1 human astrocytoma cells
T3 sequence (P51582 whole entry): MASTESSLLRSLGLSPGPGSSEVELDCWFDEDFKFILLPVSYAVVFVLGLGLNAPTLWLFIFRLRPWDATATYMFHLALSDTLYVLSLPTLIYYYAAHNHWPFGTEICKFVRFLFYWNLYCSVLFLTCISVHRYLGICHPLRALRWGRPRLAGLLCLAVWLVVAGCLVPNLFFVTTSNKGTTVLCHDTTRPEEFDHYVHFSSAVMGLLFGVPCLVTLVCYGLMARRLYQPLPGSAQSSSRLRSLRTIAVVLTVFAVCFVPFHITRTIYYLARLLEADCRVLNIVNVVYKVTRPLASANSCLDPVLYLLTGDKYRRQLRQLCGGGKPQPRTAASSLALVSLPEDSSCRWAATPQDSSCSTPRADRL
Procedure: as §3, §4

[10] = acute i.c.v. UDP, barrel cortex, day 4 vs day 1, P<0.01

SMILES: S=C=Nc1cccc(NC(=S)NCCCCNC(=S)Nc2cccc(N=C=S)c2)c1 [MRS2578]
effect of antagonist on ability of sodium salt of compound 5 to elevate Ca2+ signals (P2Y6 receptor [1]; P2Y6 expressing cells, MRS2578 added): attenuated

SMILES: O=C(Cn1c(=O)ccn([C@@H]2O[C@H](COP(=O)(O)OP(=O)(O)O)[C@@H](O)[C@H]2O)c1=O)c1ccccc1 [PSB0474, 3-phenacyl-UDP]
EC50 (P2Y6 receptor [2]; P2Y6 receptor agonist): 70 nM
selectivity for P2Y6 receptor (P2Y6 receptor [2]): > 500 fold
detrimental effects to the animal (PSAPP mice [3]): did not cause detrimental effects
memory deficit compared to vehicle treatment (PSAPP mice [4]; FIG. 9C, one week treatment with 1 ug/kg): rescued the memory deficit
total freezing percentage in context test (PSAPP mice [4]; chronic injection of PSB0474, two different doses): increased
β1-40 staining after stopping treatment (PSAPP mice [5]; 6 consecutive days i.p., then stopped for 2 weeks (6+2 weeks group), level lower than saline control): rebounded
immunoreactivity of β1-40 (plaque load) (PSAPP mice [5]; cortex): significantly decreased
effects on the efficacy endpoint at higher dose (PSAPP mice [5]; higher dose of 1 mg/kg, one week daily treatment): smaller effects
immunoreactivity of β1-40 (plaque load) (PSAPP mice [5]; hippocampus): significantly decreased

SMILES: O=c1ccn([C@@H]2O[C@H](COP(=O)(O)OP(=O)(O)O)[C@@H](O)[C@H]2O)c(=O)[nH]1 [UDP, uridine diphosphate]
soluble Aβ40 level (PSAPP mice [6]; FIG. 4E): decreased
soluble Aβ42 level (PSAPP mice [6]; FIG. 4F): decreased
decrease in plaque load (PSAPP mice [7]; cortex, β1-40 antibody, p<0.05): 60%
decrease in plaque load (PSAPP mice [7]; cortex, β1-42 antibody, P<0.01): 48%
decrease in plaque load (PSAPP mice [7]; hippocampus, β1-40 antibody, p<0.01): 62%
decrease in plaque load (PSAPP mice [7]; hippocampus, β1-42 antibody, P<0.05): 47%
field excitatory postsynaptic potential (fEPSP), last 15 min potentiation (PSAPP mice [8]; UDP treatment, comparable to level in littermates): significant increase
LTP at schaffer collateral synapse, CA1 (PSAPP mice [8]; acute UDP treatment vs ACSF, HFS): reversed this LTP deficit
freezing behavior compared to ACSF treatment (PSAPP mice [4]; FIG. 7C, UDP-treatment 3 days prior to the test): significantly improved
freezing behavior during 5 minute-testing time (PSAPP mice [4]; UDP treatment, during the first 4 minutes, not the last minute): increased freezing behavior
total freezing percentage (PSAPP mice [4]; acute UDP i.c.v., contextual test, ACSF control 18%±3%): 49%±5%
day 4/day 1 ratios of plaque load (PSAPP mice [9]; FIG. 2D, UDP vs ACSF, barrel cortex): significant reductions
day 4/day 1 ratios, number of plaques (PSAPP mice [9]; FIG. 2E, UDP vs ACSF, barrel cortex): significant reductions
reduction in plaque load (PSAPP mice [9]; [10]): 17.2%
reduction in the number of plaques (PSAPP mice [9]; [10]): 12.6%
reduction in cross-sectional area of individual identified plaques (PSAPP mice [9]; acute i.c.v. UDP, second imaging session, P<0.01): 18.2%

elevating Ca2+ levels in P2Y2 receptor expressing cells (P2Y2 receptor): not effective
elevating Ca2+ levels in cells expressing P2Y6 receptors (P2Y6 receptor [1]; sodium salt, 1321N1 human astrocytoma cells expressing P2Y6): only effective
EC50 (P2Y6 receptor [1]; sodium salt, 1321N1 human astrocytoma cells expressing P2Y6, fluo-4 Ca2+): 12 nM
elevating Ca2+ levels in P2Y4 receptor expressing cells (P2Y4 receptor): not effective
SMILES: O=c1ccn([C@@H]2O[C@H](COP(=O)(O)OP(=O)(O)O)[C@H](O)C2O)c(=O)n1Cc1noc2ccccc12 (stereo partly shown) [compound 5]
Aβ plaque load (%) in the cortex vs vehicle control (PSAPP mice [7]; FIG. 12A, β1-42 antibody, compound 5 i.p. 7 days): substantial decrease
Aβ plaque load (%) in the hippocampus vs vehicle control (PSAPP mice [7]; FIG. 12B, β1-42 antibody, compound 5 i.p. 7 days): substantial decrease
freezing behavior compared to the control treatment (PSAPP mice [4]; FIG. 11, compound 5 prior to the test): significantly improved; also recorded: restored to a level equivalent to that observed in wildtype animals
total freezing percentage in the context test (PSAPP mice [4]; compound 5 i.p. daily for 7 consecutive days, 1 ug/kg or 1 mg/kg): increased
